The target of series [1] is T1, APLF FHA domain (Homo sapiens, UniProt Q8IW19).
T1 construct: His6 (N, cleaved yes); TEV cleavage site (N, cleaved yes); made in house; host or cells: Escherichia coli Rosetta2 (DE3)
T1 sequence (Q8IW19 1-108 limits assumed): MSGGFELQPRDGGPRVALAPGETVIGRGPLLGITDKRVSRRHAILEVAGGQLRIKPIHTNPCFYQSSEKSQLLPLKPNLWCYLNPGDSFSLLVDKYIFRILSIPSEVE
As to the kind of experiment: 1H,15N-HSQC NMR titration with inorganic anions. The series is classed as binding. To be noted: for amide shift changes of U-[15N] APLF FHA produced by the anion: 0-150 mM titrant, 0.1 mM protein; for Kd: amide shifts of the more strongly shifted resonances, 25 mM HEPES, 25 mM MES, 150 mM NaCl, 1 mM EDTA, 1:1 binding, read-out: phosphate Kd. The method, then: (§1) All NMR experiments were performed at 35°C on a Varian INOVA 500 MHz spectrometer equipped with a triple-resonance, pulsed-field gradient cryo-probe, with the exception of the ^31P experiments, which were collected on an Agilent/Varian DD2 600 MHz spectrometer equipped with a heteronuclear broadband probe. The backbone chemical shift assignments were made from 3D HNCACB, CBCA(CO)NH, HNCA, HN(CO)CA, HNCO and HN(CA)CO experiments that were obtained using Agilent BioPack pulse sequences (Agilent). The 3D experiments were acquired with non-uniform sampling to speed up the data acquisition ([36],[37]). Since several of the amide resonances were broadened as a result of the intermediate amide proton exchange dynamics at pH 7.4, a low pH buffer, 25 mM sodium citrate, 50 mM NaCl, and 1 mM EDTA, pH 5.5, was used for the amide backbone assignments. For phosphopeptide titration experiments, 2D ^1H,^15N-HSQC spectra were acquired on a sample containing 0.1 mM U-[^15N] APLF-FHA in 25 mM HEPES, 25 mM MES, 150 mM NaCl, 1 mM EDTA, pH 7.4 as a function of phosphopeptide concentration. The interaction of sodium phosphate, sodium sulfate, and sodium ethylsulfate with U-[^15N] APLF FHA sample was also studied by monitoring the ^1H,^15N-HSQC spectrum of the labeled protein as a function of the anion concentration. The volume of peptide or anion added never exceeded more than 10% of the total volume.

The conditions of series [2]: free amino acid; cited from earlier work. An excerpt: This selectivity implies that most phosphopeptides formed by CK2-dependent phosphorylation contain multiple anionic residues and are often multiply phosphorylated.
Series [3] has as its target T1, APLF FHA domain. As to the kind of experiment: Fluorescence polarization peptide binding assay. To be noted: FP; for Kd: room temperature. As to the method:
Apparent dissociation constants for peptide-protein interactions were determined based on fluorescence polarization measurements of fluorescein-labeled peptides on a POLARstar Omega fluorescence polarization (FP) reader (BMG Labtech) using an excitation wavelength of 485 nm and the emission measured at 520 nm at room temperature. XRCC1 phosphopeptides used in FP studies (Table 1) were labeled with an N-terminal FITC-Gly-Gly fluorophore. Measurements were made as a function of pH in the range from pH 7.4 to 5.5 in FP buffer consisting of 25 mM HEPES, 25 mM MES, 150 mM NaCl, 1 mM EDTA, 2 mM DTT and 0.05% Tween 20. Samples of the APLF FHA domain in FP buffer were prepared at pH 7.4, 7.0, 6.5, 6.0 and 5.5. Samples corresponding to each titration step were put in a 96-well black flat-bottomed plate and the fluorescence emission polarization was determined. The FP results were normalized to a 0–1 scale after curve-fitting for the direct comparison of results from different conditions. Data for the interaction of a phosphopeptide (L) with APLF FHA (M) were fit to a single-site binding equation as described previously ([39]). All phosphopeptides used were synthesized by either GenScript or Thermo Fisher.

Series [4] has as its target T1, APLF FHA domain. As to the kind of experiment: NMR lineshape simulation of amide exchange data. The series is classed as binding. To be noted: two-site exchange lineshape simulation; pH 7.4; 35°C. As to the method: as §1, with “APLF-FHA in 25 mM HEPES, 25 mM MES, 150 mM NaCl, 1 mM EDTA, pH 7.4 as a function of phosphopeptide concentration. The interaction of sodium phosphate, sodium sulfate, and sodium ethylsulfate with U-[^15N] APLF FHA sample was also studied by monitoring the ^1H,^15N-HSQC spectrum of the labeled protein as a function of the anion concentration. The volume of peptide or anion added never exceeded more than 10% of the total volume.” left out
The lineshape simulations utilized a Mathematica algorithm (Wolfram Research, Champaign, IL, USA) based on the two-site exchange formalism given by Rogers and Woodbrey ([40]). The fraction of bound ligand, pB, is initially calculated using the above relation, the FHA domain and peptide concentrations and an assumed Kd value which is then varied to optimize the agreement with the experimental spectra. […]

A short description of series [5]: 31P NMR pH titration of free phosphopeptides (pK determination). To be noted: pH 8.5 to 4.0, 0.5 mM peptide, 50 mM sodium acetate, 50 mM sodium cacodylate, 1 mM EDTA, TMP reference, Henderson-Hasselbalch fit. The class given is physicochemical. The method, then:
1D ^31P-NMR experiments were employed to determine the pK values of the phosphate groups in phosphopeptides and to characterize the interaction of the phosphopeptide with the APLF-FHA domain. Experimental parameters included a ^31P offset of 2.48 ppm, a sweep width of 20 ppm, an acquisition time of 1 sec, a relaxation delay of 1 sec, and 1024 scans were acquired per experiment. Phosphopeptide concentrations of 0.5 mM were used in all 1D ^31P NMR experiments. A two-dimensional selective ^1H,^31P-HSQC experiment ([38]) was used to assign the phosphoserine and phosphothreonine resonances. […]
Measurements of the pK values of the free phosphopeptides were performed in 50 mM sodium acetate, 50 mM sodium cacodylate, 1 mM EDTA as a function of pH with 0.5 mM tri-methylphosphate (TMP) added as a chemical shift reference. Small amounts of 0.1 N NaOH or HCl were titrated to vary the pH in the range from 8.5 to 4.0 in 0.2–0.4 pH decrements. pK values were determined by fitting the pH-dependent chemical shift data to a Henderson–Hasselbalch equation: where δP and δU correspond to the protonated and unprotonated chemical shifts. The dependence of the phosphopeptide ^31P NMR shifts as a function of APLF FHA domain concentration were determined in 25 mM HEPES, 25 mM MES, 150 mM NaCl, 1 mM EDTA, pH 7.4, with 0.25 mM TMP added as a chemical shift reference. […]

Where [6] appears, read: pH 6.0, FITC-Gly-Gly labelled peptide, FP buffer.
Where [7] appears, read: pH 6.5, FITC-Gly-Gly labelled peptide, FP buffer.
Where [8] appears, read: pH 7.4, N-terminal FITC-Gly-Gly labelled peptide, 25 mM HEPES, 25 mM MES, 150 mM NaCl, 1 mM EDTA, 2 mM DTT, 0.05% Tween 20, single-site fit.

This is an account of results in publication PMC5716189, “Characterization of the APLF FHA–XRCC1 phosphopeptide interaction and its structural and functional implications” (Nucleic Acids Research, 2017).

Broadly, the Kd is the concentration at which binding is half-saturated.

Square brackets hold non-standard residues; d marks the D form. Peptide text beside a SMILES is read from it. * marks the point of attachment. FITC = O=C1OC2(c3ccc(O)cc3Oc3cc(O)ccc32)c2ccc(NC(=S)*)cc21; pT = C[C@@H](OP(=O)(O)O)[C@H](N)C(=O)O; pS = N[C@@H](COP(=O)(O)O)C(=O)O

With `CCOS(=O)(=O)[O-].[Na+]` [ethylsulfate, sodium ethylsulfate], the “amide shift changes of U-[15N] APLF FHA produced by the anion” value was “fails to produce any significant amide shifts” at APLF FHA domain [1] (pH 7.4) and “negligible shifts” on APLF FHA domain [1] (pH 7.4, listed as sodium ethylsulfate).

Turning to `N[C@@H](COP(=O)(O)O)C(=O)O` [phosphoserine], in series [2], the “phosphate pK (dianionic/monoanionic)” value is recorded as “approximately 5.75”.

As to `C[C@H](NC(=O)[C@H](Cc1ccc(O)cc1)NC(=O)[C@@H]1CCCN1C(=O)[C@H](CC(=O)O)NC(=O)CNC(=O)CNC(=S)Nc1ccc2c(c1)C(=O)OC21c2ccc(O)cc2Oc2cc(O)ccc21)C(=O)NCC(=O)N[C@@H](COP(=O)(O)O)C(=O)N[C@H](C(=O)N[C@@H](CC(=O)O)C(=O)N[C@@H](CCC(=O)O)C(=O)N[C@@H](CC(N)=O)C(=O)N[C@H](C(=O)N[C@@H](CC(=O)O)C(=O)N[C@@H](CO)C(=O)N[C@@H](CCC(=O)O)C(=O)N[C@@H](CCC(=O)O)C(=O)N[C@@H](Cc1c[nH]cn1)C(=O)N[C@@H](CCC(N)=O)C(=O)N[C@@H](CCC(=O)O)C(=O)O)[C@@H](C)O)[C@@H](C)OP(=O)(O)O` [XRCC1pSpT-18] ({FITC}-GGDPYAG[pS][pT]DENTDSEEHQE-OH; C-terminus assumed), the Kd is greater than 60 µM on APLF FHA domain [3] (pH 5.5, FITC-Gly-Gly labelled peptide, FP buffer); greater than 25 µM at APLF FHA domain [3] (setting [6]); 8.23 ± 1.89 µM on APLF FHA domain [3] (setting [7]); 4.67 ± 0.04 µM at APLF FHA domain [3] (pH 7.0, FITC-Gly-Gly labelled peptide, FP buffer); 3.31 ± 0.15 µM at APLF FHA domain [3] (setting [8]). Further, the “fold reduction of binding affinity at pH 6.0” value on APLF FHA domain [3] (pH 6.0 relative to pH 7.4) is recorded as greater than 8 fold. On APLF FHA domain [3] (pH 6.5 relative to pH 7.4), the “fold reduction of binding affinity at pH 6.5” value was “less than 2.5 fold”. Moreover, the “τB, lifetime of the protein-peptide complex” value at APLF FHA domain [4] is 0.9 ms.

For `O=S(=O)([O-])[O-].[Na+].[Na+]` [sulfate, sodium sulfate], on APLF FHA domain [1] (pH 7.4), the “amide shift changes of U-[15N] APLF FHA produced by the anion” value is given as “perturbs the same resonances that are sensitive to phosphate, although to a lesser extent”.

Regarding `C[C@@H](OP(=O)(O)O)[C@H](N)C(=O)O` [phosphothreonine], the “phosphate pK (dianionic/monoanionic)” value in series [2] was roughly 5.95.

As for `O=P(O)(O)O` [phosphate, sodium phosphate], the Kd at APLF FHA domain [1] (pH 5.5) is 92500 ± 17800 µM; at APLF FHA domain [1] (pH 7.4), 14100 ± 3700 µM.

`C[C@H](NC(=O)[C@H](Cc1ccc(O)cc1)NC(=O)[C@@H]1CCCN1C(=O)[C@H](CC(=O)O)NC(=O)CNC(=O)CNC(=S)Nc1ccc2c(c1)C(=O)OC21c2ccc(O)cc2Oc2cc(O)ccc21)C(=O)NCC(=O)N[C@@H](CO)C(=O)N[C@H](C(=O)N[C@@H](CC(=O)O)C(=O)N[C@@H](CCC(=O)O)C(=O)N[C@@H](CC(N)=O)C(=O)N[C@H](C(=O)N[C@@H](CC(=O)O)C(=O)N[C@@H](CO)C(=O)N[C@@H](CCC(=O)O)C(=O)N[C@@H](CCC(=O)O)C(=O)N[C@@H](Cc1c[nH]cn1)C(=O)N[C@@H](CCC(N)=O)C(=O)N[C@@H](CCC(=O)O)C(=O)O)[C@@H](C)O)[C@@H](C)OP(=O)(O)O` [XRCC1SpT-18] ({FITC}-GGDPYAGS[pT]DENTDSEEHQE-OH; C-terminus assumed) had a Kd at APLF FHA domain [3] (setting [8]) greater than 20 µM.

For “VYDEpSpTDEESEN [XRCC4pSpT-12, 12-residue XRCC4 peptide phosphorylated on Ser232/Thr233]”, in series [5], the “pK of pSer phosphate” value came to 6.90 and the “pK of pThr phosphate” value is listed as 7.22.

For the compound `C[C@H](NC(=O)[C@H](Cc1ccc(O)cc1)NC(=O)[C@@H]1CCCN1C(=O)[C@@H](N)CC(=O)O)C(=O)NCC(=O)N[C@@H](CCC(=O)O)C(=O)N[C@H](C(=O)N[C@@H](CC(=O)O)C(=O)N[C@@H](CCC(=O)O)C(=O)N[C@@H](CC(N)=O)C(=O)N[C@H](C(=O)N[C@@H](CC(=O)O)C(=O)N[C@@H](CO)C(=O)N[C@@H](CCC(=O)O)C(=O)N[C@@H](CCC(=O)O)C(=O)N[C@@H](Cc1c[nH]cn1)C(=O)N[C@@H](CCC(N)=O)C(=O)N[C@@H](CCC(=O)O)C(=O)O)[C@@H](C)O)[C@@H](C)OP(=O)(O)O` [XRCC1EpT-18] (H-DPYAGE[pT]DENTDSEEHQE-OH), the Kd is greater than 300 µM on APLF FHA domain [3] (setting [6]), greater than 50 µM at APLF FHA domain [3] (setting [7]) and 9.94 ± 4.6 µM at APLF FHA domain [3] (setting [8]).

Take `C[C@H](NC(=O)[C@H](Cc1ccc(O)cc1)NC(=O)[C@@H]1CCCN1C(=O)[C@H](CC(=O)O)NC(=O)CNC(=O)CNC(=S)Nc1ccc2c(c1)C(=O)OC21c2ccc(O)cc2Oc2cc(O)ccc21)C(=O)NCC(=O)N[C@@H](COP(=O)(O)O)C(=O)N[C@H](C(=O)N[C@@H](CC(=O)O)C(=O)N[C@@H](CCC(=O)O)C(=O)N[C@@H](CC(N)=O)C(=O)N[C@@H](CCC(=O)O)C(=O)N[C@@H](CC(=O)O)C(=O)N[C@@H](CCC(=O)O)C(=O)N[C@@H](CCC(=O)O)C(=O)N[C@@H](CCC(=O)O)C(=O)N[C@@H](Cc1c[nH]cn1)C(=O)N[C@@H](CCC(N)=O)C(=O)N[C@@H](CCC(=O)O)C(=O)O)[C@@H](C)OP(=O)(O)O` [XRCC1pSpTEE-18] ({FITC}-GGDPYAG[pS][pT]DENEDEEEHQE-OH; C-terminus assumed): the “fold reduction of Kd relative to XRCC1pSpT-18” value at APLF FHA domain [3] (pH 7.4) was 10 fold.
